Assay results from article PMC5345905 (Journal of the American Chemical Society, 2017).

System: Bacillus subtilis 168
Assay: minimal inhibitory concentration
Assay type: cell-based
Details: purified unique compounds, quantitative MIC

thiocillin [WT]
MIC: 0.5 µg/mL
